The source of these data is patent US10792305B2, “Therapeutic immune modulation using noble gas compositions” (NOBILIS THERAPEUTICS, INC., priority 2015, dated 2020).

Data set [1] has as its system PTSD. The following applies: 20 mg/day and 40 mg/day, cited from earlier work.
The test system of data set [2] is severely disruptive symptoms related to autistic disorder. The following applies: pentoxifylline titrated to 600 mg/day with risperidone up to 3 mg/day, 10 weeks, versus placebo+risperidone; cited from earlier work.
The subject of data set [3] is behavioral symptoms of children with ASD. To be noted: 30 or 60 mg per day p.o. for 3-4 months, 25 children; cited from earlier work.
Data set [4] concerns TNF-alpha production from monocytes. As to the kind of experiment: Induced TNF-alpha production by monocytes (adherent PBMC), ELISA. Format: cell-based, human. The following applies: 30% xenon by volume for 1 or 2 hours; 1 ug/ml LPS and 10 μM amyloid beta peptide Aβ (1-42) for 24 h; supernatant ELISA. On the procedure: 10 ml of heparinized blood was extracted from healthy volunteers and peripheral blood mononuclear cells were isolated by centrifugation over a ficoll gradient. Cells were subsequently washed in 2× volume phosphate buffered saline, and resuspended in RPMI media supplemented with 10% fetal calf serum. Cells were incubated at a concentration of 10 million cells per ml in 6-well plates in a volume of 2 ml per well. Cells were cultured for 24 hours at 37 Celsius in a fully humidified atmosphere with 5% CO2, subsequent to which non-adherent cells were removed by washing with PBS. Adherent cells were subsequently divided into […], one plate incubated at normoxic tissue culture, the second plate cultured for 1 hour in 30% xenon by volume, and the third tissue cultured for 2 hours in 30% volume. Cells were treated with control media, 1 ug/ml LPS and 10 μM of amyloid beta peptide Aβ (1-42) for 24 h. Supernatant was collected and assessed for TNF-alpha production by ELISA.
A general note: ELISA stands for enzyme-linked immunosorbent assay.

The subject of data set [5] is IL-12 production from dendritic cells. As to the kind of experiment: Induced IL-12 production by dendritic cells, ELISA. The format is cell-based, human. The following applies: CD1c dendritic cells; 1 ug/ml LPS and 10 μM amyloid beta peptide Aβ (1-42) for 24 h; supernatant ELISA. On the procedure: Monocytes from adherent PBMC were isolated as described in Example 1. Dendritic cells were generated by 7 day culture in IL-4 (10 ng/ml) and GM-CSF (20 ng/ml). Media was changed every two days. On day 7, purification of CD1c dendritic cells was performed and cells were cultured in control media, 1 ug/ml LPS and 10 μM of amyloid beta peptide Aβ (1-42) for 24 h. Supernatant was collected and assessed for IL-12 production by ELISA.

“Also recorded” adds a separate entry of the source.

Turning to `Fc1ccc([C@@H]2CCNC[C@H]2COc2ccc3c(c2)OCO3)cc1` [paroxetine], the “improvement on primary outcome measures compared to placebo” value in data set [1] (intent-to-treat analysis) is “significantly greater improvement”. For the same molecule, the “PTSD symptom clusters (reexperiencing, avoidance/numbing, hyperarousal), social and occupational impairment, comorbid depression” value in data set [1] (versus placebo) was “statistically significant improvement compared to placebo”. Also, the tolerability entry in data set [1] is “well tolerated”. As to `CC(=O)CCCCn1c(=O)c2c(ncn2C)n(C)c1=O` [pentoxifylline], the “ABC-C subscale scores (Irritability, Lethargy/Social Withdrawal, Stereotypic Behavior, Hyperactivity/Noncompliance, Inappropriate Speech)” value in data set [2] is listed as “greater reduction in ABC-C subscale scores”. For `CCc1ccc(CCOc2ccc(CC3SC(=O)NC3=O)cc2)nc1` (stereo not shown) [pioglitazone], in data set [3], the adverse events result is reported as “without adverse events”. With `[Xe]` [xenon gas, xenon], in data set [4], the “induced TNF-alpha production (FIG. 1)” value is given as “suppression of induced TNF-alpha production was observed; also recorded: suppression of inducible TNF-alpha production”. Moreover, the “induced IL-12 production (FIG. 2)” value in data set [5] was “suppression of induced IL-12 production was observed; also recorded: suppression of inducible IL-12 production”.
